Test results from patent publication US20180064829A1, “FLUORESCENT BISPHOSPHONATE ANALOGS” (University of Southern California, priority 2015, published 2018).

Legend:
[1] = pKa and protonation status of the heterocyclic nitrogen; format: physicochemical; conditions: pH 6.0; calculated by Henderson-Hasselbalch equation
Source text: The nucleophilicity and Lewis basicity of the nitrogen atom of the three heterocyclic N-BPs studied in this report vary, and these properties appear to be the major determinants of their conjugation reactivity. Thus, the ‘magic linker’ methodology for RIS required modification for ZOL (1d), MIN (1e), and their related analogues (1f). […] The protonation status of the heteroatom at different pH is also critical to the reactivity. […] Under such conditions, more than 50% (˜71.3% calculated) of the nitrogen of RIS will be deprotonated, and able to attack the epoxide ring nucleophilically. However, at pH 6.0, only 18% of the nitrogen of ZOL (22% for MIN) is deprotonated, thus the reactions were very slow (2d) at pH 6.0. At pH 7.0-7.5, reaction was more rapid, but the regioselectivity (N-alkylation vs. O-alkylation) for 1d, 1e, 1f was not as good as for RIS and its analogues (1a, 1b, 1c); 10-20% of side products could be observed, which were confirmed by HPLC, NMR and MS to be the products of N,O(P)-dialkylation (O-alkylation occurs between the phosphonate/carboxylate group of the drug and the epoxide). The reaction rate of MinPC (1f)-epoxide (5) coupling was even slower than ZOL under the same reaction conditions (same reactant ratio, pH 7.5, 40-45° C.), which might be due to a steric effect from the large heterocycle. In addition, the percent of side products was higher and O-alkylation products were also observed in the reaction mixture.
The following publications are incorporated by reference herein in their entirety: • [1] a) R. G. G. Russell, N. B. Watts, F. H. Ebetino, M. J. Rogers, Osteoporos. Int. 2008, 19, 733-759; b) F. Ebetino, A. Hogan, S. Sun, M. Tsoumpra, X. Duan, J. Triffitt, A. Kwaasi, J. Dunford, B. Barnett, U. Oppermann, M. Lundy, A. Boyde, B. Kashemirov, C. McKenna, R. Russell, Bone 2011, 49 20-33. • [2] a) I. Reid, M. Bolland, A. Grey, Bone 2007, 41, 318-320; b) A. Siddiqi, A. Payne, S. Zafar, Oral Surg. Oral Med. Oral Pathol. Oral Radiol. Endod. […]

[2] = parent compounds, ref. [23]; cited from earlier work
[3] = test system: unprenylated Rap1A (uRap1A); conditions: PC analogues versus N-BPs; cited from earlier work
[4] = UV-VIS absorption and fluorescence emission spectra; format: physicochemical; conditions: 0.1M phosphate buffer (1x PBS for 7d5); ± 1 nm error
Protocol: All labeled samples were dissolved in water and diluted with 0.1 M phosphate buffer or 1×PBS (for 7d5). Assuming that the labeled bisphosphonates have the same extinction coefficient (E) as the carboxylic acid of the free fluorescent label, the final concentrations for all labeled products were calculated from UV-VIS absorption spectra at λ=493 nm (ε=73000 M^−1 cm^−1 at pH 7.2) for FAM conjugates (7a1-7a3, 7b1, 7c1, 7d1-7d2, 7e1-7e2, 7f1-7f2), λ=567.5 nm (ε=114850 M^−1cm^−1 at pH 7.5) for RhR-X conjugates (7a4, 7b2, 7c2), λ=580 nm (c=72000 M^−1cm^−1 at pH 8.0) for ROX conjugates (7a5, 7b3), λ=648 nm (ε=240000 M^−1cm^−1 at pH 7.2) for AF647 conjugates (7a6, 7b4, 7d3), λ=774 nm (ε=240000 M^−1cm^−1 at pH 7.4) for 800CW conjugates (7d4), λ=644 nm (ε=271000 M^−1cm^−1 at pH 7.4, 1×PBS) for Sulfo-Cy5 conjugates (7d5).
Emission spectra for FAM and RhR-X conjugates were recorded using an excitation wavelength of 490 nm or 520 nm, respectively. Emission spectra for AF647 conjugates and Sulfo-Cy5 conjugates were recorded using an excitation wavelength of 600 nm. Emission spectra of 5(6)-ROX conjugates were recorded using an excitation wavelength of 575 nm. Emission spectra of IRDye CW800 conjugate was recorded using an excitation wavelength of 750 nm. The set-up of excitation slit, emission slit, integration time and increment were determined to get optimal spectra for each compound respectively, depending on the sample concentration and spectrometer used.

[5] = Hydroxyapatite (HAP) column chromatography binding assay; conditions: pH 6.8, phosphate gradient 1 to 1000 mM; FIG. 3
Protocol: The fast performance liquid chromatography (FPLC) system consisted of a Waters 650E advanced protein purification system (Millipore Corp., Waters chromatography division, Milford, Mass.), a 600E system controller and a 484 tunable absorbance detector for UV absorbance assessment. Ceramic hydroxyapatite [HAP, […], Macro-Prep® Ceramic Hydroxyapatite Type II 20 μm 100 g, Bio-Rad Laboratories, Inc. Hercules, Calif.] was equilibrated with 1 mM phosphate buffer (pH 6.8) and packed in a 0.66 cm (diameter)×6.5 cm (length) glass column (Omnifit, Bio-chem Valve™ inc., Cambridge, U.K.), which was attached to the Waters 650E advanced protein purification system. Each sample was prepared in 1 mM potassium phosphate buffer, and 100 μL of 1 mM (0.1 μmol) sample was injected into the FPLC system. As a consequence, the compounds were absorbed and subsequently eluted at a flow rate of 2 ml/min by using a linear concentration gradient of phosphate from 1 to 1000 mM at pH 6.8. Fractions of each sample were collected in 80 tubes using an automated fraction collector (Gilson, France) and then used for subsequent ultraviolet (SPECTRAmax PLUS 384, Molecular Devices, CA) or fluorescence spectrometry detection (WALLAC VICTOR™, 1420 MULTILABEL COUNTER, Perkin Elmer, USA). […] The elution profile for each sample was determined in triplicate for statistical analysis (Prism, GraphPad Software, USA). […]

[6] = test system: unprenylated Rap1A (uRap1A); experiment: Prenylation assay: Western blot for unprenylated Rap1A in J774.2 macrophages; format: cell-based, mouse; conditions: 10 or 100 μM, 24 h, FIG. 5A-C
Protocol: To determine the effect of fluorescent BP probes on protein prenylation, J774.2 mouse macrophages were plated out at 2×10^5 cells/mL in 24-well plates and left to adhere overnight. Cells were then treated with 10 or 100 μM of fluorescent analogues of RIS, dRIS, and ZOL, the respective native BP, or vehicle, for 24 h. Cells were lysed in radioimmunoprecipitation buffer, and proteins were separated by sodium dodecyl sulfate polyacrylamide gel electrophoresis and transferred to polyvinyl difluoride membranes by western blotting. Membranes were then incubated with antibodies to the unprenylated form of Rap1A (uRap1A) and the housekeeping protein β-actin, which were detected by incubation with fluorescently-labeled secondary antibodies and scanning of membranes on a LI-COR Infrared Imager. Results shown are representative of 2 independent experiments. The ratio between abundance of unprenylated RaplA and β-actin is indicated for each sample below the blots in FIG. 5.

[7] = pH 7.2, 0.1M phosphate buffer; assumed the same as the corresponding fluorescent dye; cited from earlier work

Row | fraction of the heterocyclic nitrogen deprotonated [1] [%] | SMILES | rank order of mineral binding affinity [2] | activity in uRap1A and J774.2 cell viability screening assays [3] | further results
1 | 22 | O=P(O)(O)C(O)(Cc1cnc2ccccn12)P(=O)(O)O [MIN, (1-Hydroxy-2-imidazo[1,2-a]pyridin-3-yl-1-phosphonoethyl)phosphonic acid] | – | – | –
2 | 18 | O=P(O)(O)C(O)(Cn1ccnc1)P(=O)(O)O [ZOL, [1-hydroxy-2-(1H-imidazol-1-yl)ethane-1,1-diyl]bis(phosphonic acid)] | – | – | –
3 | – | O=C(O)C(O)(Cc1cccnc1)P(=O)(O)O (centres unmarked) [RISPC, 2-hydroxy-2-phosphono-3-pyridin-3-ylpropanoic acid] | RIS>dRIS>RISPC | much less active than the N-BPs | –
4 | – | O=C(O)C(O)(Cc1cnc2ccccn12)P(=O)(O)O (centres unmarked) [MINPC, 2-hydroxy-3-imidazo[1,2-a]pyridin-3-yl-2-phosphonopropionic acid] | – | much less active than the N-BPs | –
5 | – | O=P(O)(O)C(Cc1cccnc1)P(=O)(O)O [dRIS, (2-pyridin-3-ylethane-1,1-diyl)bis(phosphonic acid)] | RIS>dRIS>RISPC | – | –
6 | – | O=C(NCC(O)C[n+]1ccn(CC(O)(P(=O)(O)O)P(=O)(O)O)c1)c1ccc(C(=O)O)c(-c2c3ccc(=O)cc-3oc3cc(O)ccc23)c1 (centres unmarked) [Compound 6-FAM-ZOL, 3-(3-(4-carboxy-3-(6-hydroxy-3-oxo-3H-xanthen-9-yl)benzamido)-2-hydroxypropyl)-1-(2-hydroxy-2,2-diphosphonoethyl)-1H-imidazol-3-ium] | – | – | Maximum absorption wavelength (λmax (abs), nm) [4]: 493 nm; Maximum emission wavelength (λmax (em), nm) [4]: 516 nm; HAP binding affinity (retention time on HAP column, normalized to RIS) [5]: slightly longer retention time on the HAP column than its 5-isomer; accumulation of unprenylated Rap1A (anti-prenylation activity) [6]: retain some activity, although their potencies are weaker than native ZOL; Extinction coefficient [7]: 73,000 (pH 7.2) M^−1cm^−1
